Experimental data published in ChEMBL document CHEMBL4190189, “Exploring Jolkinol D Derivatives To Overcome Multidrug Resistance in Cancer” (J Nat Prod, 2017).
Calls of active or inactive are those of the source. The rule behind the calls is not given here.

Key:
[1] = tested on: L5178Y; assay: Cytotoxicity against mouse L5178Y cells assessed as reduction in cell viability after 72 hrs by MTT assay; format: cell-based
[2] = Resistance ratio of IC50 for human EPP85-181P cells to IC50 for human EPP85-181RDB cells; format: functional
[3] = Resistance ratio of IC50 for human EPG85-257P cells to IC50 for human EPG85-257RNOV cells; format: functional
[4] = molecular target: T1, ATP-dependent translocase ABCB1 (Homo sapiens, UniProt P08183); assay: Inhibition of human ABCB1 expressed in mouse L5178Y cells assessed as potentiation of doxorubicin-induced cytotoxicity by measuring combination index at 200:1 compound to doxorubicin ratio after 48 hrs by MTT assay; format: cell-based
T1 sequence (P08183 whole entry): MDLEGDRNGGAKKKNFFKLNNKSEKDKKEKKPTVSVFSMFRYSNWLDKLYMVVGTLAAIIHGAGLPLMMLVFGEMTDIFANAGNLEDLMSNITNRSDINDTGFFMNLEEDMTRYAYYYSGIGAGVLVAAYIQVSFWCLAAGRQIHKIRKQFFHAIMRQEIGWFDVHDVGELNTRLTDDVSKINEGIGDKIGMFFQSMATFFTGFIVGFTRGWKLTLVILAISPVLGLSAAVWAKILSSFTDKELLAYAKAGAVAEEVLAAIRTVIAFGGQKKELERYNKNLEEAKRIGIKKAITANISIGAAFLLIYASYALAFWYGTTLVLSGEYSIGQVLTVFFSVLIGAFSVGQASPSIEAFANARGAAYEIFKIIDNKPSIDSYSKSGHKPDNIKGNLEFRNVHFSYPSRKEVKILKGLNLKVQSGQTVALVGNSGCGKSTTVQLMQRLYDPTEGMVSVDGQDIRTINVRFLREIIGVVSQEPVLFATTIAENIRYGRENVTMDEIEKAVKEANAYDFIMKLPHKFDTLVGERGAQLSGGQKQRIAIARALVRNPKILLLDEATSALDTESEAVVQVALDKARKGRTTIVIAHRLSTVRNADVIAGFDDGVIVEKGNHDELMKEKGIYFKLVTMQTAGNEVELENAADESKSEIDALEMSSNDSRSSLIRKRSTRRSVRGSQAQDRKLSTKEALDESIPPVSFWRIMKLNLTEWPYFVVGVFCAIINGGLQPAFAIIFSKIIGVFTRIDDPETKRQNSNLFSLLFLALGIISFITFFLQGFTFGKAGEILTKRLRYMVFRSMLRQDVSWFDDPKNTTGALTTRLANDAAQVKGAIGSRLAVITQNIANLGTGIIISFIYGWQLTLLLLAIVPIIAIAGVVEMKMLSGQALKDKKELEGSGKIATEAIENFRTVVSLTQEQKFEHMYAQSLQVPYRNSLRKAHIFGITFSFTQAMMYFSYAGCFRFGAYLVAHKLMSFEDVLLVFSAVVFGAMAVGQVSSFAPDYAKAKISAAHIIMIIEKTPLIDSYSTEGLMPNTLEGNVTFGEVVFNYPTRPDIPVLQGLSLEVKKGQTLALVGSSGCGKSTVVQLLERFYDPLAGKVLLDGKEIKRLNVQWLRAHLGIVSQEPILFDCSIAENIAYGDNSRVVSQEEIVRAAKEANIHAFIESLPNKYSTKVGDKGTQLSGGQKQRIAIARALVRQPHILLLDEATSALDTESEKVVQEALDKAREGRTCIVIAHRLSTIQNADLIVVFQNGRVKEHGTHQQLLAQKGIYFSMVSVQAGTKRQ

[5] = molecular target: T1, ATP-dependent translocase ABCB1; assay: Modulation of human ABCB1 expressed in mouse L5178Y cells assessed as fluorescence activity ratio at 2 uM pretreated for 10 mins followed by rhodamine-123 addition measured after 20 mins by flow cytometry (reference value: 0.87); format: cell-based
[6] = Resistance ratio of IC50 for human EPG85-257P cells to IC50 for human EPG85-257RDB cells; format: functional
[7] = tested on: L5178Y; assay: Cytotoxicity against mouse L5178Y cells transfected with human ABCB1 assessed as reduction in cell viability after 72 hrs by MTT assay; format: functional, cell-based
[8] = Cytotoxicity against human EPG85-257RNOV cells assessed as reduction in cell viability after 5 days by SRB assay; format: functional, cell-based; details: 120 h
[9] = molecular target: T1, ATP-dependent translocase ABCB1; assay: Modulation of human ABCB1 expressed in mouse L5178Y cells assessed as fluorescence activity ratio at 20 uM pretreated for 10 mins followed by rhodamine-123 addition measured after 20 mins by flow cytometry (reference value: 0.87); format: cell-based
[10] = organism: Homo sapiens; assay: Induction of apoptosis in human EPG85-257RNOV cells at 30 uM after 72 hrs by annexin-V/propidium iodide staining based flow cytometric method relative to control; format: functional
[11] = Cytotoxicity against human EPG85-257P cells assessed as reduction in cell viability after 5 days by SRB assay; format: cell-based; details: 120 h
[12] = organism: Homo sapiens; assay: Induction of apoptosis in human EPG85-257RDB cells at 30 uM after 72 hrs by annexin-V/propidium iodide staining based flow cytometric method relative to control; format: functional
[13] = molecular target: T1, ATP-dependent translocase ABCB1; assay: Inhibition of human ABCB1 expressed in mouse L5178Y cells assessed as potentiation of doxorubicin-induced cytotoxicity by measuring combination index at 18:1 compound to doxorubicin ratio after 48 hrs by MTT assay; format: cell-based
[14] = organism: Homo sapiens; assay: Induction of apoptosis in human EPG85-257RDB cells assessed as caspase-3 activation at 30 uM after 72 hrs by flow cytometric method relative to control; format: functional
[15] = Induction of apoptosis in human EPG85-257P cells assessed as caspase-3 activation at 30 uM after 72 hrs by flow cytometric method relative to control; format: cell-based; details: 72 h, 30 µM
[16] = organism: Homo sapiens; assay: Induction of apoptosis in human EPG85-257RNOV cells assessed as caspase-3 activation at 30 uM after 72 hrs by flow cytometric method relative to control; format: functional
[17] = Induction of apoptosis in human EPG85-257P cells at 30 uM after 72 hrs by annexin-V/propidium iodide staining based flow cytometric method relative to control; format: cell-based
[18] = Cytotoxicity against human EPG85-257RDB cells assessed as reduction in cell viability after 5 days by SRB assay; format: functional, cell-based; details: 120 h
[19] = molecular target: T1, ATP-dependent translocase ABCB1; assay: Inhibition of human ABCB1 expressed in mouse L5178Y cells assessed as potentiation of doxorubicin-induced cytotoxicity by measuring combination index at 400:1 compound to doxorubicin ratio after 48 hrs by MTT assay; format: cell-based
[20] = molecular target: T1, ATP-dependent translocase ABCB1; assay: Inhibition of human ABCB1 expressed in mouse L5178Y cells assessed as potentiation of doxorubicin-induced cytotoxicity by measuring combination index at 100:1 compound to doxorubicin ratio after 48 hrs by MTT assay; format: cell-based
[21] = molecular target: T1, ATP-dependent translocase ABCB1; assay: Inhibition of human ABCB1 expressed in mouse L5178Y cells assessed as potentiation of doxorubicin-induced cytotoxicity by measuring combination index at 5:1 compound to doxorubicin ratio after 48 hrs by MTT assay; format: cell-based
[22] = molecular target: T2, ABCB1 (P-glycoprotein) ATPase (Homo sapiens, UniProt P08183); assay: Inhibition of human ABCB1 ATPase activity expressed in Sf9 insect cell membranes assessed as reduction in verapamil-stimulated vanadate-sensitive ATPase activity at 3.13 to […] uM measured after 10 mins by colorimetric method relative to control; details: Sf9 insect cell membranes expressing human ABCB1, probe verapamil (ATPase stimulator)
T2 sequence (P08183 whole entry): as above

[23] = molecular target: T2, ABCB1 (P-glycoprotein) ATPase; assay: Inhibition of human ABCB1 ATPase activity expressed in Sf9 insect cell membranes assessed as reduction in verapamil-stimulated vanadate-sensitive ATPase activity at 25 to 100 uM measured after 10 mins by colorimetric method relative to control; details: Sf9 insect cell membranes expressing human ABCB1, probe verapamil (ATPase stimulator)
[24] = molecular target: T1, ATP-dependent translocase ABCB1; assay: Activation of human ABCB1 ATPase activity expressed in Sf9 insect cell membranes assessed as increase in vanadate-sensitive basal ATPase activity at 0.78 to 100 uM measured after 10 mins by colorimetric method relative to control
[25] = molecular target: T1, ATP-dependent translocase ABCB1; assay: Inhibition of human ABCB1 expressed in mouse L5178Y cells assessed as potentiation of doxorubicin-induced cytotoxicity by measuring combination index at 50:1 compound to doxorubicin ratio after 48 hrs by MTT assay; format: cell-based

| Structure (SMILES) | Ratio [5] | Ratio [9] | IC50 [1] [µM] | Ratio IC50 [6] | IC50 [7] [µM] | IC50 [8] [µM] | also measured |
| --- | --- | --- | --- | --- | --- | --- | --- |
| CC(=O)O[C@]12C[C@H](C)[C@H](OC(=O)Oc3ccccc3)[C@@H]1/C=C(/C)CC[C@H]1[C@@H](/C=C(\C)C2=O)C1(C)C | 10.8 | 19.5 | > 19 | 0.4 | > 19 | 5.55 | Activity [10]: Active; IC50 [11]: 6.24 µM; Activity [12]: Active; CI [13]: 0.5; Activity [14]: Active; Activity [15]: Toxic; Activity [16]: Active; Activity [17]: Toxic; IC50 [18]: 2.34 µM |
| CC(=O)O[C@]12C[C@H](C)[C@H](OC(=O)c3ccc(-c4ccccc4)cc3)[C@@H]1/C=C(/C)CC[C@H]1[C@@H](/C=C(\C)C2=O)C1(C)C | 11.6 | 37.2 | > 19 | – | > 19 | – | CI [20]: 0.32; Ratio IC50 [3]: 0.2 |
| CCOC(=O)O[C@H]1[C@@H](C)C[C@]2(OC(C)=O)C(=O)/C(C)=C/[C@@H]3[C@H](CC/C(C)=C\[C@@H]12)C3(C)C | 3.1 | 18.7 | > 19 | 0.4 | > 19 | < 10 | CI [21]: 1.22 |
| CC(=O)O[C@]12C[C@H](C)[C@H](O)[C@@H]1/C=C(\C)CC[C@H]1[C@@H](/C=C(\C)C2=O)C1(C)C [JOLKINOL D] | – | – | – | – | – | – | inhibition at 10 min [22]: 14 to 40%; inhibition at 10 min [23]: 9 to 33%; Activity [24]: 66 to 87% |
| CC(=O)O[C@]12C[C@H](C)[C@H](OC(=O)/C=C/c3ccccc3)[C@@H]1/C=C(/C)CC[C@H]1[C@@H](/C=C(\C)C2=O)C1(C)C | 28.6 | 41.5 | > 19 | 0.2 | > 19 | – | CI [25]: 1.13 |
| COc1cccc(C(=O)O[C@H]2[C@@H](C)C[C@]3(O)C(=O)/C(C)=C/[C@@H]4[C@H](CC/C(C)=C\[C@@H]23)C4(C)C)c1 | 12 | 32.8 | > 19 | – | > 19 | – | CI [25]: 0.38 |

Further lines, with some results ahead:

| Ratio [5] | Ratio [9] | Structure (SMILES) | IC50 [1] [µM] | Ratio IC50 [6] | IC50 [7] [µM] | IC50 [8] [µM] | also measured |
| --- | --- | --- | --- | --- | --- | --- | --- |
| 8.3 | 16.7 | C/C1=C/[C@H]2[C@@H](OC(=O)c3ccc4ccccc4c3)[C@@H](C)C[C@]2(O)C(=O)/C(C)=C/[C@@H]2[C@H](CC1)C2(C)C | > 19 | 0.3 | > 19 | < 10 | Ratio IC50 [2]: 0.3; Ratio IC50 [3]: 0.4; CI [4]: 0.2 |
| 11.9 | 31.9 | CC(=O)O[C@]12C[C@H](C)[C@H](OC(=O)c3ccc4ccccc4c3)[C@@H]1/C=C(/C)CC[C@H]1[C@@H](/C=C(\C)C2=O)C1(C)C | > 19 | – | > 19 | – | CI [19]: 0.06 |
